Values of other authors as cited in patent US7872030B2, “Use of 2-[5-(4-fluorophenyl)-3-pyridylmethylaminomethyl]-chromane and its physiologically acceptable salts” (Merck Patent GmbH, priority 2001, dated 2011).

Test system: advanced Parkinson patients
Settings: cited from earlier work

O=C1CC2(CCCC2)CC(=O)N1CCCCN1CCN(c2ncccn2)CC1 [buspirone]
anti-dyskinetic properties: moderate anti-dyskinetic properties
